Data reported in PubChem BioAssay (NCI).
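Results reflect a 48-hour exposure of cells in 96-well plates to compound at five concentrations. Definition used: TGI = concentration required for complete inhibition of growth.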

Tests used:
Assay in all cases: DTP human tumour cell line panel, 48 h
786-0 renal = system: 786-0 renal
A498 renal = system: A498 renal
A549 NSCLC = system: A549 NSCLC
ACHN renal = system: ACHN renal
BT-549 breast = system: BT-549 breast
CAKI-1 renal = system: CAKI-1 renal
CCRF-CEM leukemia = system: CCRF-CEM leukemia
COLO 205 colon = system: COLO 205 colon
DU-145 prostate = system: DU-145 prostate
EKVX NSCLC = system: EKVX NSCLC
HCC-2998 colon = system: HCC-2998 colon
HCT-116 colon = system: HCT-116 colon
HCT-15 colon = system: HCT-15 colon
HL-60(TB) leukemia = system: HL-60(TB) leukemia
HOP-62 NSCLC = system: HOP-62 NSCLC
HOP-92 NSCLC = system: HOP-92 NSCLC
HS 578T breast = system: HS 578T breast
HT29 colon = system: HT29 colon
IGROV1 ovarian = system: IGROV1 ovarian
K-562 leukemia = system: K-562 leukemia
KM12 colon = system: KM12 colon
LOX IMVI melanoma = system: LOX IMVI melanoma
M14 melanoma = system: M14 melanoma
MALME-3M melanoma = system: MALME-3M melanoma
MCF7 breast = system: MCF7 breast
MDA-MB-231 breast = system: MDA-MB-231 breast
MDA-MB-435 = system: MDA-MB-435
MDA-N = system: MDA-N
MOLT-4 leukemia = system: MOLT-4 leukemia
NCI-H226 lung = system: NCI-H226 lung
NCI-H23 lung = system: NCI-H23 lung
NCI-H460 lung = system: NCI-H460 lung
NCI-H522 lung = system: NCI-H522 lung
NCI/ADR-RES ovarian = system: NCI/ADR-RES ovarian
OVCAR-3 ovarian = system: OVCAR-3 ovarian
OVCAR-4 ovarian = system: OVCAR-4 ovarian
OVCAR-5 ovarian = system: OVCAR-5 ovarian
OVCAR-8 ovarian = system: OVCAR-8 ovarian
PC-3 prostate = system: PC-3 prostate
RPMI-8226 leukemia = system: RPMI-8226 leukemia
RXF 393 renal = system: RXF 393 renal
SF-268 CNS = system: SF-268 CNS
SF-295 CNS = system: SF-295 CNS
SF-539 CNS = system: SF-539 CNS
SK-MEL-2 melanoma = system: SK-MEL-2 melanoma
SK-MEL-28 melanoma = system: SK-MEL-28 melanoma
SK-MEL-5 melanoma = system: SK-MEL-5 melanoma
SK-OV-3 ovarian = system: SK-OV-3 ovarian
SN12C renal = system: SN12C renal
SNB-19 CNS = system: SNB-19 CNS
SNB-75 CNS = system: SNB-75 CNS
SR leukemia = system: SR leukemia
SW-620 colon = system: SW-620 colon
T-47D breast = system: T-47D breast
TK-10 renal = system: TK-10 renal
U251 CNS = system: U251 CNS
UACC-257 melanoma = system: UACC-257 melanoma
UACC-62 melanoma = system: UACC-62 melanoma
UO-31 renal = system: UO-31 renal

COc1cccc2c(=O)c3c(n(C)c12)OC(C(C)C)C3 (stereo not drawn) was tested. Which TGI (786-0 renal) did it give?
The TGI was over 100 µM.

What about the TGI (A498 renal) of the same molecule?
Its TGI is over 100 µM.

What about the TGI (A549 NSCLC) of the same molecule?
The TGI was over 100 µM.

What about the TGI (ACHN renal) of the same molecule?
Its TGI is over 100 µM.

And the TGI (BT-549 breast)?
Its TGI is over 100 µM.

And the TGI (CAKI-1 renal)?
Its TGI is over 100 µM.

What about the TGI (CCRF-CEM leukemia) of the same molecule?
Its TGI is over 100 µM.

And the TGI (COLO 205 colon)?
The TGI was over 100 µM.

And the TGI (DU-145 prostate)?
Its TGI is over 100 µM.

And the TGI (EKVX NSCLC)?
The TGI was over 100 µM.

What about the TGI (HCC-2998 colon) of the same molecule?
The TGI was over 100 µM.

And the TGI (HCT-116 colon)?
The TGI was over 100 µM.

What about the TGI (HCT-15 colon) of the same molecule?
Its TGI is over 100 µM.

What about the TGI (HL-60(TB) leukemia) of the same molecule?
Its TGI is over 100 µM.

What about the TGI (HOP-62 NSCLC) of the same molecule?
Its TGI is over 100 µM.

And the TGI (HOP-92 NSCLC)?
Its TGI is over 100 µM.

What about the TGI (HS 578T breast) of the same molecule?
Its TGI is over 100 µM.

What about the TGI (HT29 colon) of the same molecule?
The TGI was over 100 µM.

And the TGI (IGROV1 ovarian)?
Its TGI is over 100 µM.

And the TGI (K-562 leukemia)?
Its TGI is 86.2 µM.

And the TGI (KM12 colon)?
The TGI was over 100 µM.

What about the TGI (LOX IMVI melanoma) of the same molecule?
The TGI was over 100 µM.

What about the TGI (M14 melanoma) of the same molecule?
Its TGI is over 100 µM.

What about the TGI (MALME-3M melanoma) of the same molecule?
Its TGI is over 100 µM.

And the TGI (MCF7 breast)?
The TGI was over 100 µM.

And the TGI (MDA-MB-231 breast)?
The TGI was over 100 µM.

And the TGI (MDA-MB-435)?
The TGI was over 100 µM.

What about the TGI (MDA-N) of the same molecule?
The TGI was over 100 µM.

What about the TGI (MOLT-4 leukemia) of the same molecule?
Its TGI is over 100 µM.

And the TGI (NCI-H226 lung)?
Its TGI is over 100 µM.

What about the TGI (NCI-H23 lung) of the same molecule?
Its TGI is over 100 µM.

What about the TGI (NCI-H460 lung) of the same molecule?
Its TGI is over 100 µM.

What about the TGI (NCI-H522 lung) of the same molecule?
The TGI was over 100 µM.

And the TGI (NCI/ADR-RES ovarian)?
Its TGI is over 100 µM.

And the TGI (OVCAR-3 ovarian)?
Its TGI is over 100 µM.

What about the TGI (OVCAR-4 ovarian) of the same molecule?
Its TGI is 89.2 µM.

What about the TGI (OVCAR-5 ovarian) of the same molecule?
Its TGI is over 100 µM.

And the TGI (OVCAR-8 ovarian)?
The TGI was over 100 µM.

What about the TGI (PC-3 prostate) of the same molecule?
Its TGI is over 100 µM.

What about the TGI (RPMI-8226 leukemia) of the same molecule?
The TGI was over 100 µM.

And the TGI (RXF 393 renal)?
Its TGI is over 100 µM.

What about the TGI (SF-268 CNS) of the same molecule?
Its TGI is over 100 µM.

And the TGI (SF-295 CNS)?
Its TGI is over 100 µM.

And the TGI (SF-539 CNS)?
Its TGI is over 100 µM.

And the TGI (SK-MEL-2 melanoma)?
The TGI was over 100 µM.

And the TGI (SK-MEL-28 melanoma)?
Its TGI is over 100 µM.

What about the TGI (SK-MEL-5 melanoma) of the same molecule?
Its TGI is over 100 µM.

And the TGI (SK-OV-3 ovarian)?
The TGI was over 100 µM.

And the TGI (SN12C renal)?
Its TGI is over 100 µM.

What about the TGI (SNB-19 CNS) of the same molecule?
The TGI was over 100 µM.

What about the TGI (SNB-75 CNS) of the same molecule?
The TGI was over 100 µM.

What about the TGI (SR leukemia) of the same molecule?
The TGI was over 100 µM.

What about the TGI (SW-620 colon) of the same molecule?
Its TGI is over 100 µM.

And the TGI (T-47D breast)?
Its TGI is over 100 µM.

And the TGI (TK-10 renal)?
The TGI was over 100 µM.

And the TGI (U251 CNS)?
Its TGI is over 100 µM.

What about the TGI (UACC-257 melanoma) of the same molecule?
The TGI was over 100 µM.

And the TGI (UACC-62 melanoma)?
Its TGI is over 100 µM.

And the TGI (UO-31 renal)?
The TGI was over 100 µM.

What does the source list for C=C1c2nc3ccccc3n2C=C(c2ccc(OC)cc2)N1c1ccccc1?
TGI (786-0 renal): > 100 µM; TGI (A498 renal): > 100 µM; TGI (A549 NSCLC): > 100 µM; TGI (ACHN renal): > 100 µM; TGI (BT-549 breast): 71 µM; TGI (CAKI-1 renal): > 100 µM; TGI (CCRF-CEM leukemia): > 57.9 µM; TGI (COLO 205 colon): > 70.9 µM; TGI (DU-145 prostate): > 100 µM; TGI (EKVX NSCLC): > 100 µM; TGI (HCC-2998 colon): 39.8 µM; TGI (HCT-116 colon): > 100 µM; TGI (HCT-15 colon): > 56.8 µM; TGI (HL-60(TB) leukemia): 7.93 µM; TGI (HOP-62 NSCLC): > 100 µM; TGI (HOP-92 NSCLC): > 100 µM; TGI (HS 578T breast): > 96.6 µM; TGI (HT29 colon): 26.7 µM; TGI (IGROV1 ovarian): > 100 µM; TGI (K-562 leukemia): > 100 µM; TGI (KM12 colon): > 47.2 µM; TGI (LOX IMVI melanoma): > 100 µM; TGI (M14 melanoma): > 60.4 µM; TGI (MALME-3M melanoma): 49.8 µM; TGI (MCF7 breast): > 63.5 µM; TGI (MDA-MB-231 breast): > 100 µM; TGI (MDA-MB-435): 4.83 µM; TGI (MDA-N): 8.56 µM; TGI (MOLT-4 leukemia): > 55.9 µM; TGI (NCI-H226 lung): 22.6 µM; TGI (NCI-H23 lung): 98.5 µM; TGI (NCI-H460 lung): > 34.5 µM; TGI (NCI-H522 lung): 27.2 µM; TGI (NCI/ADR-RES ovarian): 9.64 µM; TGI (OVCAR-3 ovarian): 98 µM; TGI (OVCAR-4 ovarian): > 100 µM; TGI (OVCAR-5 ovarian): > 100 µM; TGI (OVCAR-8 ovarian): > 69.3 µM; TGI (PC-3 prostate): > 100 µM; TGI (RPMI-8226 leukemia): 45.1 µM; TGI (RXF 393 renal): > 76.1 µM; TGI (SF-268 CNS): > 100 µM; TGI (SF-295 CNS): > 55.6 µM; TGI (SF-539 CNS): > 91.2 µM; TGI (SK-MEL-2 melanoma): 42.4 µM; TGI (SK-MEL-28 melanoma): > 96.7 µM; TGI (SK-MEL-5 melanoma): 42.2 µM; TGI (SK-OV-3 ovarian): > 100 µM; TGI (SN12C renal): > 100 µM; TGI (SNB-19 CNS): 48.3 µM; TGI (SNB-75 CNS): 58.3 µM; TGI (SR leukemia): > 24.5 µM; TGI (SW-620 colon): > 65.4 µM; TGI (T-47D breast): 98.3 µM; TGI (TK-10 renal): > 100 µM; TGI (U251 CNS): > 100 µM; TGI (UACC-257 melanoma): > 100 µM; TGI (UACC-62 melanoma): > 57.6 µM; TGI (UO-31 renal): > 91.3 µM
